Values joined by “and” are separate entries in the source; they are usually repeats but may differ in a detail not shown here. Equal values may be shown once. Read-outs that look alike come from different tables or passages of the source.
Legend:
Assay in all cases: cell-based
[1] = molecular target: hNav1.3 (Homo sapiens, UniProt Q9NY46); conditions: IonWorks Quattro; read-out: IC50 Nav1.3
[2] = molecular target: T1, hNav1.7 (Homo sapiens, UniProt Q15858); conditions: IonWorks Quattro; read-out: IC50 Nav1.7
[3] = molecular target: T2, hNav1.4 (Homo sapiens, UniProt P35499); conditions: for IC50: IonWorks Quattro, read-out: IC50 Nav1.4; for Nav1.4/Nav1.7: ratio of IonWorks Quattro IC50 values
[4] = molecular target: T3, hNav1.5 (Homo sapiens, UniProt Q14524); conditions: IonWorks Quattro; read-out: IC50 Nav1.5
[5] = molecular target: T2, hNav1.4; conditions: for IC50: PatchXpress, tonic block, read-out: PX hNav1.4 Tonic IC50; for Nav1.4/Nav1.7: ratio of PX tonic IC50 values
[6] = molecular target: T3, hNav1.5; conditions: for IC50: PatchXpress, tonic block, read-out: PX hNav1.5 Tonic IC50; for Nav1.5/Nav1.7: ratio of PX tonic IC50 values
[7] = molecular target: T1, hNav1.7; assay type: cell-based; conditions: PatchXpress, tonic block; read-out: PX hNav1.7 Tonic IC50

T2 sequence (P35499 whole entry): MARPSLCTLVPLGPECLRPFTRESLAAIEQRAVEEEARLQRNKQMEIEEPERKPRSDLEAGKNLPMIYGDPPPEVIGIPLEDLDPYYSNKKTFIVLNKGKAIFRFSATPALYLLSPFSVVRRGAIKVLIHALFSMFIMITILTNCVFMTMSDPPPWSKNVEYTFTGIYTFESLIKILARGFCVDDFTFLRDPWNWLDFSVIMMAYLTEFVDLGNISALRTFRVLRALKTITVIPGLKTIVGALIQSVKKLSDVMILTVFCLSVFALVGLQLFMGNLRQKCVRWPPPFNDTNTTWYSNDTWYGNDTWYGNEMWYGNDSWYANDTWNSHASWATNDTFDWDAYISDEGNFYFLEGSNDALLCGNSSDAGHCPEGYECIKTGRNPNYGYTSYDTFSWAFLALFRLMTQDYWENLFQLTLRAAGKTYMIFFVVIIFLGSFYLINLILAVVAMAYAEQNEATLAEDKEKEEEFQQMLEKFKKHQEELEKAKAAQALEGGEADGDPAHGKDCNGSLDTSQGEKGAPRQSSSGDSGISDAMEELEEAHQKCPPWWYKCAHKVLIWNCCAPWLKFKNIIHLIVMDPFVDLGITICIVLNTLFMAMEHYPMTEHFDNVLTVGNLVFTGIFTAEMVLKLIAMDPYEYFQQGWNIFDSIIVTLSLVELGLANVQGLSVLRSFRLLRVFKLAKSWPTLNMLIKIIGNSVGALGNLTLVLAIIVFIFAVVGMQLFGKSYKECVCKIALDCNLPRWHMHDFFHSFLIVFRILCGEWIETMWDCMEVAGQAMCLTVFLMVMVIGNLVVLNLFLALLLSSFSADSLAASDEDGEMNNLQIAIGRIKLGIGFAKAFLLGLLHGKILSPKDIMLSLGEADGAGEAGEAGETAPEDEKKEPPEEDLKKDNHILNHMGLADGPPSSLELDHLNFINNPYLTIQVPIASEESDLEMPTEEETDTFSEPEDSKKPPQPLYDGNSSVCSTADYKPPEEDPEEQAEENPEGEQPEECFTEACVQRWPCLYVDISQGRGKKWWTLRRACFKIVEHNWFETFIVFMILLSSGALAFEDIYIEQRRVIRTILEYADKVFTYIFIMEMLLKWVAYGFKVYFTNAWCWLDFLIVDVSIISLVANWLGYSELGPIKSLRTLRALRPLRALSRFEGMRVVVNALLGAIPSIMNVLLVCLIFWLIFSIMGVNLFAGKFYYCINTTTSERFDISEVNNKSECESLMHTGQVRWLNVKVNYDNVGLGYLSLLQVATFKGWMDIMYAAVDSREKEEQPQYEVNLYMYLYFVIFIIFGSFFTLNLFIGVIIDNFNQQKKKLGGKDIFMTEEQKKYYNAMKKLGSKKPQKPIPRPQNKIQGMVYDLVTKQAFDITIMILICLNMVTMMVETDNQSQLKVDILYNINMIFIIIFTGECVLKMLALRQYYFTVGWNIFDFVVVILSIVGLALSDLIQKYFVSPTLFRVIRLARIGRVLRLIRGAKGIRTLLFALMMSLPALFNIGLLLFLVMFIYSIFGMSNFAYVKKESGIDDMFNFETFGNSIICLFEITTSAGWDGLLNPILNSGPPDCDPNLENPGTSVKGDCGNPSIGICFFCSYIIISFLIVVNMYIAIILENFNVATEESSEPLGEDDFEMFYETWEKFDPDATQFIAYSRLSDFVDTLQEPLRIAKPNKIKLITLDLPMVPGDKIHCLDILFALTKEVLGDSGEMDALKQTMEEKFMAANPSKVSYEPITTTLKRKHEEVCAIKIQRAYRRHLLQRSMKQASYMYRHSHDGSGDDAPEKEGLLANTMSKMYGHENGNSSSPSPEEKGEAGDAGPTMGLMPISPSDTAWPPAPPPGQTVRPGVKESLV
Chain of hNav1.3 (Q9NY46 whole entry): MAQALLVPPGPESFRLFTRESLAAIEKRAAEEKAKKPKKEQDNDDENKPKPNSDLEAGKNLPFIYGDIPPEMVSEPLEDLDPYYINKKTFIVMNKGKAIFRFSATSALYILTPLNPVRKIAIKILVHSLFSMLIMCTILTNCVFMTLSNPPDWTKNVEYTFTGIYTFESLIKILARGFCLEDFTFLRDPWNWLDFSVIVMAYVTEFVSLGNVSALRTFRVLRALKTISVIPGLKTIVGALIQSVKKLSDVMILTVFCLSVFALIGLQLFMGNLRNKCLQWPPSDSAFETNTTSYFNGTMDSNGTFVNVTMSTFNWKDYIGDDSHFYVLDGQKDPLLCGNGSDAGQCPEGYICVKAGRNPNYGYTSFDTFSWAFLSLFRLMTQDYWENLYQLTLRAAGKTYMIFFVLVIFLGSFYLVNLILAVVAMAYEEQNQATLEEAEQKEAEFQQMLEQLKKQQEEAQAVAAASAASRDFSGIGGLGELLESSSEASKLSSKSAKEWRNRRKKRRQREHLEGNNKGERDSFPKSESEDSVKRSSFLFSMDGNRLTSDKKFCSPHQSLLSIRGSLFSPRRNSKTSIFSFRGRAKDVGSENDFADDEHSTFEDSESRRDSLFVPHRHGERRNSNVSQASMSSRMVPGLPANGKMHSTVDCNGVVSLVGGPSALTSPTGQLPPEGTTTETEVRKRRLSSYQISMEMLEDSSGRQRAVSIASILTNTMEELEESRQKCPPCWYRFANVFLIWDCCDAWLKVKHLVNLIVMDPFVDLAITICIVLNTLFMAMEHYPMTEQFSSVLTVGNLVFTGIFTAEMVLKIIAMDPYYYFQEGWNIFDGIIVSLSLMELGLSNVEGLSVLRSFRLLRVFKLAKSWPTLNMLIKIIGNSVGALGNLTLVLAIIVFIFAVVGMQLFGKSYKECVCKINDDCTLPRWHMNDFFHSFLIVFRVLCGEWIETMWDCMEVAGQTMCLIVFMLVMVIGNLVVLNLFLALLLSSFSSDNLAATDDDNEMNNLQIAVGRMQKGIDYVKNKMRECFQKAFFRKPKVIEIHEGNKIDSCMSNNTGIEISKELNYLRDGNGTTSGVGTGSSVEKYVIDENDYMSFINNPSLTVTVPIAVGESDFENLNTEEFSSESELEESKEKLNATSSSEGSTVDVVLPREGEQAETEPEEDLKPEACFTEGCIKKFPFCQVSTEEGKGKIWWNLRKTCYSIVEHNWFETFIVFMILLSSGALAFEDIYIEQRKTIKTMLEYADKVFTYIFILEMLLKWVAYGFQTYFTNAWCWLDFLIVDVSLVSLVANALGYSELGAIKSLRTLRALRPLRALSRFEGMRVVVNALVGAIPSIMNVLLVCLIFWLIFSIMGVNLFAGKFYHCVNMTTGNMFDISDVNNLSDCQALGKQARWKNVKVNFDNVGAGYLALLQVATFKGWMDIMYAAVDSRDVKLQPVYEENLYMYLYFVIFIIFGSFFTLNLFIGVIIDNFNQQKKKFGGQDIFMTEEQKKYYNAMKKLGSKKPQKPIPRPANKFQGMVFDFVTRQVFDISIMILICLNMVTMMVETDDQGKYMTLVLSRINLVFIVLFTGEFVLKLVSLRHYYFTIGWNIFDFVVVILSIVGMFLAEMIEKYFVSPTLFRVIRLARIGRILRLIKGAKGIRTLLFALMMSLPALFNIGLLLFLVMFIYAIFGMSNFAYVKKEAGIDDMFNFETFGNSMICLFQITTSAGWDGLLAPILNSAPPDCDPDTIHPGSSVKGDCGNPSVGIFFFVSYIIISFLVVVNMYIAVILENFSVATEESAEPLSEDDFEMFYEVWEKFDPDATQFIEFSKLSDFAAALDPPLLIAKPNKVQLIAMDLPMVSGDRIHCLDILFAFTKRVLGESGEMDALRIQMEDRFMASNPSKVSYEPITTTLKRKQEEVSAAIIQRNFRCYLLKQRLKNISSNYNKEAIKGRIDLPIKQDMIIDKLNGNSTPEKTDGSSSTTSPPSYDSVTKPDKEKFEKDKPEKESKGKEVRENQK

Compound: CCC[C@@H]1NC(=O)[C@H](CCSC)NC(=O)[C@H](Cc2c[nH]c3ccccc23)NC(=O)[C@H](CCCCN)NC(=O)[C@H](CCC(N)=O)NC(=O)[C@@H](NC(=O)[C@@H](N)Cc2ccc(O)cc2)CSSC[C@@H]2NC(=O)[C@@H]3CSSC[C@@H](C(=O)N[C@@H](CCCNC(=N)N)C(=O)N[C@@H](CCCCN)C(=O)N[C@@H](Cc4ccc(O)cc4)C(=O)N[C@H](C(N)=O)[C@@H](C)CC)NC(=O)[C@H](Cc4c[nH]c5ccccc45)NC(=O)[C@H](CC(C)C)NC(=O)[C@H](CCCCN)NC(=O)[C@H](CSSC[C@H](NC(=O)[C@H]([C@@H](C)O)NC1=O)C(=O)N[C@@H](CC(=O)O)C(=O)N[C@@H](CO)C(=O)N[C@@H](CCCCN)C(=O)N[C@@H](CCCNC(=N)N)C(=O)N[C@@H](C)C(=O)N3)NC(=O)[C@H](CCC(=O)O)NC(=O)[C@H](CC(C)C)NC(=O)CNC(=O)[C@H](CCC(=O)O)NC2=O [compound 212]
- IC50 [1]: > 7000 nM
- IC50 [2]: 4500 nM
- IC50 [3]: > 7000 nM
- IC50 [4]: > 7 µM

Compound: CC[C@H](C)[C@H](NC(=O)[C@@H](NC(=O)[C@H](CCCCN)NC(=O)[C@H](CCCNC(=N)N)NC(=O)[C@@H]1CSSC[C@@H]2NC(=O)[C@H](C)NC(=O)[C@H](CCCNC(=N)N)NC(=O)[C@H](CCCCN)NC(=O)[C@H](CO)NC(=O)[C@H](CC(=O)O)NC(=O)[C@@H]3CSSC[C@H](NC(=O)[C@H](CCCNC(N)=O)NC(=O)[C@H](CC(C)C)NC(=O)CNC(=O)[C@H](CCC(=O)O)NC(=O)[C@H](CSSC[C@H](NC(=O)[C@@H](N)Cc4ccc(O)cc4)C(=O)N[C@@H](CCC(N)=O)C(=O)N[C@@H](CCCCN)C(=O)N[C@@H](Cc4c[nH]c5ccccc45)C(=O)N[C@@H](CCSC)C(=O)N[C@@H](Cc4c[nH]c5ccccc45)C(=O)N[C@@H]([C@@H](C)O)C(=O)N3)NC2=O)C(=O)N[C@@H](CCCCN)C(=O)N[C@@H](CC(C)C)C(=O)N[C@@H](Cc2c[nH]c3ccccc23)C(=O)N1)[C@@H](C)CC)C(N)=O [compound 122]
- IC50 [1]: 350 nM
- IC50 [2]: 40 nM
- IC50 [3]: 500 nM
- Nav1.4/Nav1.7 [3]: 15
- IC50 [4]: 6.8 µM

Compound: C#CC[C@H](N)C(=O)NCCOCCOCCOCCOCCC(=O)NCCCC[C@@H]1NC(=O)[C@H](CCCNC(=N)N)NC(=O)[C@H](CCCCN)NC(=O)[C@H](CO)NC(=O)[C@H](CC(=O)O)NC(=O)[C@@H]2CSSC[C@@H]3NC(=O)[C@H](CCC(=O)O)NC(=O)[C@H](CC(C)C)NC(=O)CNC(=O)[C@H](CCC(=O)O)NC(=O)[C@H](CSSC[C@H](NC(=O)[C@@H](N)Cc4ccc(O)cc4)C(=O)N[C@@H](CCC(N)=O)C(=O)N[C@@H](CCCCN)C(=O)N[C@@H](Cc4c[nH]c5ccccc45)C(=O)N[C@@H](CCCC)C(=O)N[C@@H](Cc4c[nH]c5ccccc45)C(=O)N[C@@H]([C@@H](C)O)C(=O)N2)NC(=O)[C@H](CSSC[C@@H](C(=O)N[C@@H](CCCNC(=N)N)C(=O)N[C@@H](CCCCN)C(=O)N[C@H](C(=O)N[C@@H](Cc2c[nH]c4ccccc24)C(N)=O)[C@@H](C)CC)NC(=O)[C@H](Cc2c[nH]c4ccccc24)NC(=O)[C@H](CC(C)C)NC(=O)[C@H](CCCCN)NC3=O)NC1=O [compound 291]
- IC50 [5]: 1130 nM
- Nav1.4/Nav1.7 [5]: 38
- IC50 [6]: 3.01 µM
- Nav1.5/Nav1.7 [6]: 100
- IC50 [7]: 30 nM
- IC50 [2]: 28 nM

Compound: C#CC[C@H](N)C(=O)NCCOCCOCCOCCOCCC(=O)NCCCC[C@@H]1NC(=O)[C@@H]2CSSC[C@H](NC(=O)[C@@H](N)Cc3ccc(O)cc3)C(=O)N[C@@H](CCC(N)=O)C(=O)N[C@@H](CCCCN)C(=O)N[C@@H](Cc3c[nH]c4ccccc34)C(=O)N[C@@H](CCCC)C(=O)N[C@@H](Cc3c[nH]c4ccccc34)C(=O)N[C@@H]([C@@H](C)O)C(=O)N[C@H]3CSSC[C@H](NC(=O)[C@H](CCC(=O)O)NC(=O)[C@H](CC(C)C)NC(=O)CNC1=O)C(=O)N[C@@H](CCCCN)C(=O)N[C@@H](CC(C)C)C(=O)N[C@@H](Cc1c[nH]c4ccccc14)C(=O)N[C@H](C(=O)N[C@@H](CCCNC(=N)N)C(=O)N[C@@H](CCCCN)C(=O)N[C@H](C(=O)N[C@@H](Cc1c[nH]c4ccccc14)C(N)=O)[C@@H](C)CC)CSSC[C@H](NC(=O)[C@H](C)NC(=O)[C@H](CCCNC(=N)N)NC(=O)[C@H](CCCCN)NC(=O)[C@H](CO)NC(=O)[C@H](CC(=O)O)NC3=O)C(=O)N2 [compound 293]
- IC50 [5]: 453 nM
- Nav1.4/Nav1.7 [5]: 1
- IC50 [6]: 0.58 µM
- Nav1.5/Nav1.7 [6]: 1
- IC50 [7]: 570 nM
- IC50 [2]: 41 nM

Compound: CC[C@H](C)[C@H](NC(=O)CNC(=O)[C@H](CCCCN)NC(=O)[C@H](CCCNC(=N)N)NC(=O)[C@@H]1CSSC[C@@H]2NC(=O)[C@H](C)NC(=O)[C@H](CCCNC(=N)N)NC(=O)[C@H](CCCCN)NC(=O)[C@H](CO)NC(=O)[C@H](CC(=O)O)NC(=O)[C@@H]3CSSC[C@H](NC(=O)[C@H](CCC(=O)O)NC(=O)[C@H](CC(C)C)NC(=O)CNC(=O)[C@H](CCC(=O)O)NC(=O)[C@H](CSSC[C@H](NC(=O)[C@@H](N)Cc4ccc(O)cc4)C(=O)N[C@@H](CCC(N)=O)C(=O)N[C@@H](CCCCN)C(=O)N[C@@H](Cc4c[nH]c5ccccc45)C(=O)N[C@@H](CCSC)C(=O)N[C@@H](Cc4c[nH]c5ccccc45)C(=O)N[C@@H]([C@@H](C)O)C(=O)N3)NC2=O)C(=O)N[C@@H](CCCCN)C(=O)N[C@@H](CC(C)C)C(=O)N[C@@H](Cc2c[nH]c3ccccc23)C(=O)N1)C(N)=O [compound 134]
- IC50 [1]: > 5000 nM
- IC50 [2]: 300 nM and 370 nM
- IC50 [3]: > 5000 nM
- Nav1.4/Nav1.7 [3]: 17 and 13

Compound: CC[C@H](C)[C@H](NC(=O)[C@@H](NC(=O)[C@H](CCCCN)NC(=O)[C@H](CCCNC(=N)N)NC(=O)[C@@H]1CSSC[C@@H]2NC(=O)[C@H](C)NC(=O)[C@H](CCCNC(=N)N)NC(=O)[C@H](CCCCN)NC(=O)[C@H](CO)NC(=O)[C@H](CC(=O)O)NC(=O)[C@@H]3CSSC[C@H](NC(=O)[C@H](CCC(=O)O)NC(=O)[C@H](CC(C)C)NC(=O)CNC(=O)[C@H](CCC(=O)O)NC(=O)[C@H](CSSC[C@H](NC(=O)[C@@H](N)Cc4ccc(O)cc4)C(=O)N[C@@H](CCC(N)=O)C(=O)N[C@@H](CCCCN)C(=O)N[C@@H](Cc4c[nH]c5ccccc45)C(=O)N[C@@H](CCSC)C(=O)N[C@@H](Cc4c[nH]c5ccccc45)C(=O)N[C@@H](Cc4cn(CCCOCCOCCOCCOCCOCCOCCOCCOCCOCCOCCN)nn4)C(=O)N3)NC2=O)C(=O)N[C@@H](CCCCN)C(=O)N[C@@H](CC(C)C)C(=O)N[C@@H](Cc2c[nH]c3ccccc23)C(=O)N1)[C@@H](C)CC)C(N)=O [compound 171]
- IC50 [2]: ≥ 5000 nM
- Nav1.4/Nav1.7 [3]: 1

Compound: C#CC[C@H](N)C(=O)NCCOCCOCCOCCOCCOCCOCCOCCOCCOCCOCCOCCOCCC(=O)NCCCC[C@@H]1NC(=O)[C@@H]2CSSC[C@H](NC(=O)[C@@H](N)Cc3ccc(O)cc3)C(=O)N[C@@H](CCC(N)=O)C(=O)N[C@@H](CCCCN)C(=O)N[C@@H](Cc3c[nH]c4ccccc34)C(=O)N[C@@H](CCCC)C(=O)N[C@@H](Cc3c[nH]c4ccccc34)C(=O)N[C@@H]([C@@H](C)O)C(=O)N[C@H]3CSSC[C@H](NC(=O)[C@H](CCC(=O)O)NC(=O)[C@H](CC(C)C)NC(=O)CNC1=O)C(=O)N[C@@H](CCCCN)C(=O)N[C@@H](CC(C)C)C(=O)N[C@@H](Cc1c[nH]c4ccccc14)C(=O)N[C@H](C(=O)N[C@@H](CCCNC(=N)N)C(=O)N[C@@H](CCCCN)C(=O)N[C@H](C(=O)N[C@@H](Cc1c[nH]c4ccccc14)C(N)=O)[C@@H](C)CC)CSSC[C@H](NC(=O)[C@H](C)NC(=O)[C@H](CCCNC(=N)N)NC(=O)[C@H](CCCCN)NC(=O)[C@H](CO)NC(=O)[C@H](CC(=O)O)NC3=O)C(=O)N2 [compound 292]
- IC50 [5]: 1630 nM
- Nav1.4/Nav1.7 [5]: 2
- IC50 [6]: 3.12 µM
- Nav1.5/Nav1.7 [6]: 3
- IC50 [7]: 900 nM
- IC50 [2]: 82 nM

Compound: C#CC[C@H](N)C(=O)NCCOCCOCCOCCOCCOCCOCCOCCOCCOCCOCCOCCOCCC(=O)NCCCC[C@@H]1NC(=O)[C@H](CCCNC(=N)N)NC(=O)[C@H](CCCCN)NC(=O)[C@H](CO)NC(=O)[C@H](CC(=O)O)NC(=O)[C@@H]2CSSC[C@@H]3NC(=O)[C@H](CCC(=O)O)NC(=O)[C@H](CC(C)C)NC(=O)CNC(=O)[C@H](CCC(=O)O)NC(=O)[C@H](CSSC[C@H](NC(=O)[C@@H](N)Cc4ccc(O)cc4)C(=O)N[C@@H](CCC(N)=O)C(=O)N[C@@H](CCCCN)C(=O)N[C@@H](Cc4c[nH]c5ccccc45)C(=O)N[C@@H](CCCC)C(=O)N[C@@H](Cc4c[nH]c5ccccc45)C(=O)N[C@@H]([C@@H](C)O)C(=O)N2)NC(=O)[C@H](CSSC[C@@H](C(=O)N[C@@H](CCCNC(=N)N)C(=O)N[C@@H](CCCCN)C(=O)N[C@H](C(=O)N[C@@H](Cc2c[nH]c4ccccc24)C(N)=O)[C@@H](C)CC)NC(=O)[C@H](Cc2c[nH]c4ccccc24)NC(=O)[C@H](CC(C)C)NC(=O)[C@H](CCCCN)NC3=O)NC1=O [compound 290]
- IC50 [5]: 2730 nM
- Nav1.4/Nav1.7 [5]: 5
- IC50 [6]: 6.1 µM
- Nav1.5/Nav1.7 [6]: 12
- IC50 [7]: 520 nM
- IC50 [2]: 52 nM
